# Measurements as given in patent US20070149465A1, “COMPOSITIONS AND METHODS FOR PREVENTION AND TREATMENT OF CACHEXIA” (priority 2005, published 2007).
# Experiment: Aqueous stability of roxithromycin (% Purity by HPLC)
# Type: physicochemical
# Settings: 2 mg/mL
# Procedure: Roxithromycin stability was determined for 2 mg/mL [roxithromycin] at 5, 25, and 40° C. as a function of pH and buffer (citrate) concentration. Roxithromycin %Purity was determined by area normalization using a reverse-phase HPLC method that meets the requirements of the EP Monograph. Solution pH values were determined per USP <791>.
structure (smiles),measurement,setting,value
CC[C@H]1OC(=O)[C@H](C)[C@@H](O[C@H]2C[C@@](C)(OC)[C@@H](O)[C@H](C)O2)[C@H](C)[C@@H](O[C@@H]2O[C@H](C)C[C@H](N(C)C)[C@H]2O)[C@](C)(O)C[C@@H](C)/C(=N\OCOCCOC)[C@H](C)[C@@H](O)[C@]1(C)O [roxithromycin],Roxithromycin % Purity By Area Normalization,"25° C., citrate pH 6, 20 mM, 0 mo",98%
same,Roxithromycin % Purity By Area Normalization,"25° C., citrate pH 6, 20 mM, 0.3 mo",97%
same,Roxithromycin % Purity By Area Normalization,"25° C., citrate pH 6, 20 mM, 0.5 mo",96%
same,Roxithromycin % Purity By Area Normalization,"25° C., citrate pH 6, 20 mM, 0.9 mo",96%
same,Roxithromycin % Purity By Area Normalization,"25° C., citrate pH 6, 20 mM, 1.5 mo",94%
same,Roxithromycin % Purity By Area Normalization,"25° C., citrate pH 6, 20 mM, 2.6 mo",92%
same,Roxithromycin % Purity By Area Normalization,"25° C., citrate pH 6, 20 mM, 5.3 mo",90%
same,Roxithromycin % Purity By Area Normalization,"25° C., citrate pH 6, 20 mM, 7.3 mo",87%
same,Roxithromycin % Purity By Area Normalization,"25° C., citrate pH 6, 50 mM, 0 mo",98%
same,Roxithromycin % Purity By Area Normalization,"25° C., citrate pH 6, 50 mM, 0.3 mo",96%
same,Roxithromycin % Purity By Area Normalization,"25° C., citrate pH 6, 50 mM, 0.5 mo",94%
same,Roxithromycin % Purity By Area Normalization,"25° C., citrate pH 6, 50 mM, 0.9 mo",92%
same,Roxithromycin % Purity By Area Normalization,"25° C., citrate pH 6, 50 mM, 1.5 mo",89%
same,Roxithromycin % Purity By Area Normalization,"25° C., citrate pH 6, 50 mM, 2.6 mo",85%
same,Roxithromycin % Purity By Area Normalization,"25° C., citrate pH 6, 50 mM, 5.3 mo",81%
same,Roxithromycin % Purity By Area Normalization,"25° C., citrate pH 6, 50 mM, 7.3 mo",78%
same,Roxithromycin % Purity By Area Normalization,"40° C., citrate pH 4, 20 mM, 0 mo",81%
same,Roxithromycin % Purity By Area Normalization,"40° C., citrate pH 4, 20 mM, 0.3 mo",27%
same,Roxithromycin % Purity By Area Normalization,"40° C., citrate pH 4, 20 mM, 0.5 mo",10%
same,Roxithromycin % Purity By Area Normalization,"40° C., citrate pH 4, 20 mM, 0.9 mo",2%
same,Roxithromycin % Purity By Area Normalization,"40° C., citrate pH 4, 50 mM, 0 mo",78%
same,Roxithromycin % Purity By Area Normalization,"40° C., citrate pH 4, 50 mM, 0.3 mo",15%
same,Roxithromycin % Purity By Area Normalization,"40° C., citrate pH 4, 50 mM, 0.5 mo",3%
same,Roxithromycin % Purity By Area Normalization,"40° C., citrate pH 4, 50 mM, 0.9 mo",1%
same,Roxithromycin % Purity By Area Normalization,"40° C., citrate pH 5, 20 mM, 0 mo",96%
same,Roxithromycin % Purity By Area Normalization,"40° C., citrate pH 5, 20 mM, 0.3 mo",74%
same,Roxithromycin % Purity By Area Normalization,"40° C., citrate pH 5, 20 mM, 0.5 mo",66%
same,Roxithromycin % Purity By Area Normalization,"40° C., citrate pH 5, 20 mM, 0.9 mo",60%
same,Roxithromycin % Purity By Area Normalization,"40° C., citrate pH 5, 20 mM, 1.5 mo",50%
same,Roxithromycin % Purity By Area Normalization,"40° C., citrate pH 5, 20 mM, 2.6 mo",36%
same,Roxithromycin % Purity By Area Normalization,"40° C., citrate pH 5, 20 mM, 5.3 mo",21%
same,Roxithromycin % Purity By Area Normalization,"40° C., citrate pH 5, 50 mM, 0 mo",92%
same,Roxithromycin % Purity By Area Normalization,"40° C., citrate pH 5, 50 mM, 0.3 mo",66%
same,Roxithromycin % Purity By Area Normalization,"40° C., citrate pH 5, 50 mM, 0.5 mo",55%
same,Roxithromycin % Purity By Area Normalization,"40° C., citrate pH 5, 50 mM, 0.9 mo",44%
same,Roxithromycin % Purity By Area Normalization,"40° C., citrate pH 5, 50 mM, 1.5 mo",28%
same,Roxithromycin % Purity By Area Normalization,"40° C., citrate pH 5, 50 mM, 2.6 mo",13%
same,Roxithromycin % Purity By Area Normalization,"40° C., citrate pH 5, 50 mM, 5.3 mo",3%
same,Roxithromycin % Purity By Area Normalization,"40° C., citrate pH 5, 100 mM, 0 mo",90%
same,Roxithromycin % Purity By Area Normalization,"40° C., citrate pH 5, 100 mM, 0.3 mo",60%
same,Roxithromycin % Purity By Area Normalization,"40° C., citrate pH 5, 100 mM, 0.5 mo",46%
same,Roxithromycin % Purity By Area Normalization,"40° C., citrate pH 5, 100 mM, 0.9 mo",31%
same,Roxithromycin % Purity By Area Normalization,"40° C., citrate pH 5, 100 mM, 1.5 mo",14%
same,Roxithromycin % Purity By Area Normalization,"40° C., citrate pH 5, 100 mM, 2.6 mo",4%
same,Roxithromycin % Purity By Area Normalization,"40° C., citrate pH 6, 20 mM, 0 mo",98%
same,Roxithromycin % Purity By Area Normalization,"40° C., citrate pH 6, 20 mM, 0.3 mo",95%
same,Roxithromycin % Purity By Area Normalization,"40° C., citrate pH 6, 20 mM, 0.5 mo",92%
same,Roxithromycin % Purity By Area Normalization,"40° C., citrate pH 6, 20 mM, 0.9 mo",89%
same,Roxithromycin % Purity By Area Normalization,"40° C., citrate pH 6, 20 mM, 1.5 mo",84%
same,Roxithromycin % Purity By Area Normalization,"40° C., citrate pH 6, 20 mM, 2.6 mo",79%
same,Roxithromycin % Purity By Area Normalization,"40° C., citrate pH 6, 20 mM, 5.3 mo",76%
same,Roxithromycin % Purity By Area Normalization,"40° C., citrate pH 6, 50 mM, 0 mo",98%
same,Roxithromycin % Purity By Area Normalization,"40° C., citrate pH 6, 50 mM, 0.3 mo",89%
same,Roxithromycin % Purity By Area Normalization,"40° C., citrate pH 6, 50 mM, 0.5 mo",82%
same,Roxithromycin % Purity By Area Normalization,"40° C., citrate pH 6, 50 mM, 0.9 mo",77%
same,Roxithromycin % Purity By Area Normalization,"40° C., citrate pH 6, 50 mM, 1.5 mo",71%
same,Roxithromycin % Purity By Area Normalization,"40° C., citrate pH 6, 50 mM, 2.6 mo",65%
same,Roxithromycin % Purity By Area Normalization,"40° C., citrate pH 6, 50 mM, 5.3 mo",61%
same,Roxithromycin % Purity By Area Normalization,"40° C., citrate pH 6, 100 mM, 0 mo",98%
same,Roxithromycin % Purity By Area Normalization,"40° C., citrate pH 6, 100 mM, 0.3 mo",85%
same,Roxithromycin % Purity By Area Normalization,"40° C., citrate pH 6, 100 mM, 0.5 mo",77%
same,Roxithromycin % Purity By Area Normalization,"40° C., citrate pH 6, 100 mM, 0.9 mo",72%
same,Roxithromycin % Purity By Area Normalization,"40° C., citrate pH 6, 100 mM, 1.5 mo",66%
same,Roxithromycin % Purity By Area Normalization,"40° C., citrate pH 6, 100 mM, 2.6 mo",58%
same,Roxithromycin % Purity By Area Normalization,"40° C., citrate pH 6, 100 mM, 5.3 mo",48%
